A short description of series [1]: Acid-base titration (pKMCS) in 2-methoxyethanol/water 4:1. Format: physicochemical. As to conditions: potentiometric; 2-methoxyethanol (Methyl Cellosolve)/water 4:1 (v/v). As for the experimental part: Acid-base titration (pKMCS) were carried out in 2-methoxyethanol (Methyl Cellosolve®) water 4:1 (v/v) solution, with 0.01 NaOH after addition of suitable amounts of 0.01N hcl. The equivalent weights (EW) given are corrected for the solvent content and the inorganic residue.

Series [2] concerns experimental infection in mice. Put plainly: Experimental infection in mice (V. Arioli et al.). Format: in vivo. The source says: In addition to their antibacterial activity in vitro, the compounds of the invention show also antibacterial activity in in vivo experimetns.
The next series relates to S. aureus ATCC 6538. In words: In vitro antimicrobial activity (MIC), standard dilution test. In kind it is cell-based. As to conditions: inoculum about 10^4 CFU/ml, 18-24 h at 37° C. How it is done: (§1) Isosensitest broth (Oxoid) and Todd-Hewitt broth (Difco) are used for growing staphylococci and streptococci, respectively. Broth cultures are diluted so that the final inoculum is about 10^4 colony forming units/ml (CFU/ml).

For series [3], the system named is S. epidermidis ATCC 12228. The description is as above. In kind it is cell-based. As to conditions: inoculum about 10^4 CFU/ml, 18-24 h at 37° C. How it is done: as §1
In another series the test system is S. aureus TOUR. The series is described as above. To be noted: inoculum about 10^4 CFU/ml, 18-24 h at 37° C. In kind it is cell-based. As for the experimental part:
as §1

The next series has as its system P. vulgaris ATCC 881. The series is described as above. Format: cell-based. As to conditions: inoculum about 10^4 CFU/ml, 18-24 h at 37° C. As for the experimental part: as §1
The test system of the next series is E. Coli SKF 12140. The series is described as above. To be noted: inoculum about 10^4 CFU/ml, 18-24 h at 37° C. In kind it is cell-based. As for the experimental part:
as §1

The test system of the next series is S. faecalis ATCC 7080. Described as above. In kind it is cell-based. To be noted: inoculum about 10^4 CFU/ml, 18-24 h at 37° C. How it is done:
as §1

In the next series the test system is S. pyogenes C 203. The series is described as above. As to conditions: inoculum about 10^4 CFU/ml, 18-24 h at 37° C. In kind it is cell-based. How it is done: as §1
A further series concerns S. pneumoniae UC 41. Described as above. In kind it is cell-based. To be noted: inoculum about 10^4 CFU/ml, 18-24 h at 37° C. As for the experimental part: as §1
A further series concerns S. warneri L 1375. In words: MIC in microtiter against coagulase-negative staphylococci, clinical isolates. As to conditions: S. warneri L 1375 clinical isolate, Iso-sensitest broth, approximately 10^4 CFU/ml. Format: cell-based. As for the experimental part:
(§2) In a representative experiment, compound III i.e. (35,52-di-dehydro-34-deoxy-teicoplanin aglycon) was tested against some clinically isolated coagulasenegative staphylococi. The results of the test, in comparison with teicoplanin, are reported below in Table VII, The MIC were determined in microtiter using Iso-sensitest broth (Oxoid Co.) and approximately 10^4 CFU/ml as the inoculum.

In series [4] the test system is S. haemoliticus L 1520 (methicillin-resistant). The series is described as above. In kind it is cell-based. As to conditions: S. haemoliticus L 1520, methicillin-resistant clinical isolate, Iso-sensitest broth, approximately 10^4 CFU/ml. As for the experimental part:
as §2

The next series has as its system S. hominis L 1070. Described as above. Format: cell-based. To be noted: S. hominis L 1070 clinical isolate, Iso-sensitest broth, approximately 10^4 CFU/ml. How it is done:
as §2

The subject of the next series is S. epidermidis L 1378. Described as above. In kind it is cell-based. As to conditions: S. epidermidis L 1378 clinical isolate, Iso-sensitest broth, approximately 10^4 CFU/ml. How it is done:
as §2

Series [5] deals with S. Simulans L 1142 (methicillin-resistant). The series is described as above. Format: cell-based. To be noted: S. Simulans L 1142, methicillin-resistant clinical isolate, Iso-sensitest broth, approximately 10^4 CFU/ml. As for the experimental part: as §2
Series [6] has as its system S. simulans L 785 (methicillin-resistant). The description is as above. Format: cell-based. To be noted: S. simulans L 785, methicillin-resistant clinical isolate, Iso-sensitest broth, approximately 10^4 CFU/ml. As for the experimental part:
as §2

Values after ≈ are worked out from the molar mass of the structure shown.

For the compound “42-α-D-mannosyl-56-N-acyl-β-D-glucosaminyl-35,52-didehydro-34-d eoxy-teicoplanin aglycon [Compound I]”, the “pKmcs (COOH)” value in series [1] stood at 5.0. Besides, in series [1], the “pKmcs (NH2)” value was 6.9. In addition, the median effective dose (ED50) in series [2] was 0.35 mg/kg. The MIC was 0.5 µg/mL with S. aureus ATCC 6538; 0.25 µg/mL in series [3]; 0.5 µg/mL in the series on S. aureus TOUR; greater than 128 µg/mL against P. vulgaris ATCC 881; greater than 128 µg/mL with E. Coli SKF 12140; 1 µg/mL in the series on S. faecalis ATCC 7080. For the same compound, the MIC against S. pyogenes C 203 and against S. pneumoniae UC 41 was 0.06 µg/mL in each case.
For `NC1C(=O)NC2Cc3ccc(c(Cl)c3)Oc3cc4cc(c3O)Oc3ccc(cc3Cl)C=C3NC(=O)C(NC(=O)C4NC(=O)C(NC2=O)c2cc(O)cc(c2)Oc2cc1ccc2O)c1ccc(O)c(c1)-c1c(O)cc(O)cc1C(C(=O)O)NC3=O` (single isomer, unassigned) [Compound IV, (36,37-cis-51,52-trans)-34,35-didehydro-34-deoxy-teicoplanin-aglycon], in series [1], the “pKmcs (COOH)” value is listed as 4.8. The “pKmcs (NH2)” value in [1] stood at 7.1. Besides, the MIC against S. aureus ATCC 6538 was 1 µg/mL (≈ 0.847 µM); in series [3], 0.12 µg/mL (≈ 0.102 µM); with S. aureus TOUR it was 1 µg/mL (≈ 0.847 µM); in the series on P. vulgaris ATCC 881 it was 128 µg/mL (≈ 108 µM); in the series on E. Coli SKF 12140, greater than 128 µg/mL; against S. faecalis ATCC 7080 it was 8 µg/mL (≈ 6.77 µM). For the same compound, the MIC against S. pyogenes C 203 and against S. pneumoniae UC 41 was 4 µg/mL (≈ 3.39 µM) each time.
On to `NC1C(=O)NC2Cc3ccc(c(Cl)c3)Oc3cc4cc(c3O)Oc3ccc(cc3Cl)C=C3NC(=O)C(NC(=O)C4NC(=O)C(NC2=O)c2cc(O)cc(c2)Oc2cc1ccc2O)c1ccc(O)c(c1)-c1c(O)cc(O)cc1C(C(=O)O)NC3=O` (single isomer, unassigned) [Compound V, (36,37-trans-51,52-trans)-34,35-didehydro-34-deoxy-teicoplanin-aglycon], for which the MIC against S. aureus ATCC 6538 is 2 µg/mL (≈ 1.69 µM); in series [3], 0.4 µg/mL (≈ 0.339 µM); in the series with S. aureus TOUR, 4 µg/mL (≈ 3.39 µM); in the series with P. vulgaris ATCC 881 it was greater than 128 µg/mL; in the series with E. Coli SKF 12140 it was greater than 128 µg/mL; against S. faecalis ATCC 7080, 16 µg/mL (≈ 13.5 µM). In addition, the minimum inhibitory concentration (MIC) against S. pyogenes C 203 and in the series with S. pneumoniae UC 41 was 8 µg/mL (≈ 6.77 µM) throughout.
In the case of `NC1C(=O)NC2Cc3ccc(c(Cl)c3)Oc3cc4cc(c3O)Oc3ccc(cc3Cl)CC3=NC(=O)C(NC(=O)C4NC(=O)C(NC2=O)c2cc(O)cc(c2)Oc2cc1ccc2O)c1ccc(O)c(c1)-c1c(O[C@H]2O[C@H](CO)[C@@H](O)[C@H](O)[C@@H]2O)cc(O)cc1C(C(=O)O)NC3=O` (stereo partly drawn) [Compound II, 42-α-D-mannosyl-35,52-didehydro-34-deoxy-teicoplanin aglycon], the “pKmcs (COOH)” value in [1] amounted to 4.8. Moreover, in series [1], the “pKmcs (NH2)” value is reported as 6.9. The same compound returned an ED50 in [2] of 5.8 mg/kg. Besides, the MIC was 0.25 µg/mL (≈ 0.186 µM) against S. aureus ATCC 6538; 0.5 µg/mL (≈ 0.372 µM) in [3]; 0.25 µg/mL (≈ 0.186 µM) against S. aureus TOUR; greater than 128 µg/mL against P. vulgaris ATCC 881; greater than 128 µg/mL in the series on E. Coli SKF 12140; 1 µg/mL (≈ 0.745 µM) in the series with S. faecalis ATCC 7080. Further, the MIC against S. pyogenes C 203 and with S. pneumoniae UC 41 was 2 µg/mL (≈ 1.49 µM) in each case.
Take `NC1C(=O)NC2Cc3ccc(c(Cl)c3)Oc3cc4cc(c3O)Oc3ccc(cc3Cl)CC3=NC(=O)C(NC(=O)C4NC(=O)C(NC2=O)c2cc(O)cc(c2)Oc2cc1ccc2O)c1ccc(O)c(c1)-c1c(O)cc(O)cc1C(C(=O)O)NC3=O` (centres unmarked) [Compound III, 35,52-didehydro-34-deoxy-teicoplanin aglycon]: the MIC is 1 µg/mL (≈ 0.847 µM) against S. warneri L 1375; 0.5 µg/mL (≈ 0.423 µM) in series [4]; 0.125 µg/mL (≈ 0.106 µM) with S. hominis L 1070; 0.125 µg/mL (≈ 0.106 µM) against S. epidermidis L 1378; 0.125 µg/mL (≈ 0.106 µM) in [5]; 0.125 µg/mL (≈ 0.106 µM) in series [6]. In addition, the minimum inhibitory concentration (MIC) in the series on S. aureus ATCC 6538 was 0.25 µg/mL (≈ 0.212 µM); in series [3], 0.12 µg/mL (≈ 0.102 µM); against S. aureus TOUR it was 0.25 µg/mL (≈ 0.212 µM); in the series on P. vulgaris ATCC 881 it was greater than 128 µg/mL; in the series on E. Coli SKF 12140, greater than 128 µg/mL; against S. faecalis ATCC 7080 it was 1 µg/mL (≈ 0.847 µM). For the same compound, the MIC against S. pyogenes C 203 and in the series on S. pneumoniae UC 41 was 1 µg/mL (≈ 0.847 µM) each time. Also, the ED50 in [2] was determined as 5 mg/kg.
For `N[C@H]1C(=O)N[C@@H]2Cc3ccc(c(Cl)c3)Oc3cc4cc(c3O)Oc3ccc(cc3Cl)[C@@H](O)[C@@H]3NC(=O)[C@H](NC(=O)[C@@H]4NC(=O)[C@@H](NC2=O)c2cc(O)cc(c2)Oc2cc1ccc2O)c1ccc(O)c(c1)-c1c(O)cc(O)cc1[C@@H](C(=O)O)NC3=O` [deglucoteicoplanin, reference compound], in [1], the “pKmcs (COOH)” value came out at 4.9 and the “pKmcs (NH2)” value came to 6.9.
Regarding teicoplanin A2 [reference compound], in series [1], the “pKmcs (COOH)” value was 5.0 and the “pKmcs (NH2)” value is listed as 7.1.
For teicoplanin [reference compound], the MIC was 2 µg/mL against S. warneri L 1375; 4 µg/mL in [4]; 0.25 µg/mL in the series on S. hominis L 1070; 0.5 µg/mL in the series on S. epidermidis L 1378; 0.125 µg/mL in [5]; 0.25 µg/mL in series [6].

As usually defined, the ED50 is the dose that gives a 50% effect, or the effect in half of the subjects. The low end stands for greater potency, the high end for weaker potency. A word on the MIC: it is the lowest concentration found to suppress growth.

The values are drawn from patent publication US4789661A, “De-(acetylglucosaminyl)-di(dehydro)-deoxy teicoplanin derivatives” (Gruppo Lepetit S.p.A., priority 1985, dated 1988).
